Results as given in patent US20240307419A1, “CONFORMATIONALLY-CONSTRAINED INHIBITORS OF 3C OR 3C-LIKE PROTEASES” (priority 2021, published 2024).

How the values were obtained:
SARS-CoV-2 3CLpro = SARS-CoV-2 3CLpro (Severe acute respiratory syndrome coronavirus 2 (2019-nCoV) (SARS-CoV-2), UniProt P0DTD1); experiment: biochemical; format: biochemical; details: for IC50: read-out: IC50
[1] = system: Huh-7, CRFK, or CCL1 cells
CRFK cells = details: cat

Row | SMILES | CC50 (CRFK cells) | further results
1 | [2H]C([2H])(OC(=O)N[C@@H](CC(C)C)C(=O)N[C@H](C=O)C[C@@H]1CCNC1=O)[C@@H]1C[C@@H]2C=CC[C@@H](C2)C1 [Compound 2d, ((1S,3S,5R)-Bicyclo[3.3.1]non-6-en-3-yl)methyl-d2 ((S)-4-methyl-1-oxo-1-(((S)-1-oxo-3-((S)-2-oxopyrrolidin-3-yl)propan-2-yl)amino)pentan-2-yl)carbamate] |  | IC50 (SARS-CoV-2 3CLpro): 0.28 ± 0.08 µM; CC50 [1]: > 100 µM
2 | CC(C)C[C@H](NC(=O)OCC1CC2C=CC1C2)C(=O)N[C@H](C=O)C[C@@H]1CCNC1=O (stereo partly drawn) [Compound 2e, Bicyclo[2.2.1]hept-5-en-2-ylmethyl ((S)-4-methyl-1-oxo-1-(((S)-1-oxo-3-((S)-2-oxopyrrolidin-3-yl)propan-2-yl)amino)pentan-2-yl)carbamate] |  | IC50 (SARS-CoV-2 3CLpro): 0.26 ± 0.05 µM; CC50 [1]: > 100 µM
3 | CC(C)C[C@H](NC(=O)O[C@@H]1C[C@H]2CC[C@@H](C1)N2C(=O)OC(C)(C)C)C(=O)N[C@H](C=O)C[C@@H]1CCNC1=O [Compound 2g, tert-Butyl (1R,3s,5S)-3-((((S)-4-methyl-1-oxo-1-(((S)-1-oxo-3-((S)-2-oxopyrrolidin-3-yl)propan-2-yl)amino)pentan-2-yl)carbamoyl)oxy)-8-azabicyclo[3.2.1]octane-8-carboxylate] |  | IC50 (SARS-CoV-2 3CLpro): 1.9 ± 0.14 µM; CC50 [1]: > 100 µM
4 | CC(C)C[C@H](NC(=O)O[C@@H]1C[C@H]2CC[C@@H](C1)N2C(=O)OCc1ccccc1)C(=O)N[C@H](C=O)C[C@@H]1CCNC1=O [Compound 2h, Benzyl (1R,3s,5S)-3-((((S)-4-methyl-1-oxo-1-(((S)-1-oxo-3-((S)-2-oxopyrrolidin-3-yl)propan-2-yl)amino)pentan-2-yl)carbamoyl)oxy)-8-azabicyclo[3.2.1]octane-8-carboxylate] |  | IC50 (SARS-CoV-2 3CLpro): 0.39 ± 0.02 µM; CC50 [1]: > 100 µM
5 | [2H]C([2H])(OC(=O)N[C@@H](CC(C)C)C(=O)N[C@H](C=O)C[C@@H]1CCNC1=O)C12CCC(CCCCC)(CC1)CC2 [Compound 2j, (4-Pentylbicyclo[2.2.2]octan-1-yl)methyl-d2 ((S)-4-methyl-1-oxo-1-(((S)-1-oxo-3-((S)-2-oxopyrrolidin-3-yl)propan-2-yl)amino)pentan-2-yl)carbamate] |  | IC50 (SARS-CoV-2 3CLpro): 0.31 ± 0.03 µM; CC50 [1]: 20 ± 3 µM
6 | CC(C)C[C@H](NC(=O)OCCC12CC3CC(CC(C3)C1)C2)C(=O)N[C@H](C=O)C[C@H]1CCNC1=O [Compound 2m, 2-((3S,5S,7S)-Adamantan-1-yl)ethyl ((S)-4-methyl-1-oxo-1-(((S)-1-oxo-3-((S)-2-oxopyrrolidin-3-yl)propan-2-yl)amino)pentan-2-yl)carbamate] |  | IC50 (SARS-CoV-2 3CLpro): 0.27 ± 0.02 µM; CC50 [1]: > 100 µM
7 | CC(C)C[C@H](NC(=O)OC[C@@]12C[C@@H]3C[C@@H](C[C@@](O)(C3)C1)C2)C(=O)N[C@H](C=O)C[C@@H]1CCNC1=O [Compound 2n, ((1r,3R,5R,7S)-3-Hydroxyadamantan-1-yl)methyl ((S)-4-methyl-1-oxo-1-(((S)-1-oxo-3-((S)-2-oxopyrrolidin-3-yl)propan-2-yl)amino)pentan-2-yl)carbamate] |  | decrease in potency compared to 2k/3k (SARS-CoV-2 3CLpro): ~5 fold; IC50 (SARS-CoV-2 3CLpro): 0.82 ± 0.19 µM; CC50 [1]: > 100 µM
8 | CC(C)C[C@H](NC(=O)OC1CC2(CCN(C(=O)OC(C)(C)C)C2)C1)C(=O)N[C@@H](C[C@H]1CCNC1=O)C(O)S(=O)(=O)O (stereo partly drawn) [Compound 5c, Sodium (2S)-2-((S)-2-((((6-(tert-butoxycarbonyl)-6-azaspiro[3.4]octan-2-yl)oxy)carbonyl)amino)-4-methylpentanamido)-1-hydroxy-3-((R)-2-oxopyrrolidin-3-yl)propane-1-sulfonate] | > 100 µM | 
9 | CC(C)C[C@H](NC(=O)OC1CCC2(C1)CN(C(=O)OC(C)(C)C)C2)C(=O)N[C@H](C=O)C[C@H]1CCNC1=O (stereo partly drawn) [Compound 6b, Tert-butyl 6-((((S)-4-methyl-1-oxo-1-(((S)-1-oxo-3-((R)-2-oxopyrrolidin-3-yl)propan-2-yl)amino)pentan-2-yl)carbamoyl)oxy)-2-azaspiro[3.4]octane-2-carboxylate] | > 100 µM | 
10 | CC(C)C[C@H](NC(=O)OC1CCC2(C1)CN(C(=O)OC(C)(C)C)C2)C(=O)N[C@@H](C[C@H]1CCNC1=O)C(O)S(=O)(=O)O (stereo partly drawn) [Compound 6c, Sodium (2S)-2-((2S)-2-((((2-(tert-butoxycarbonyl)-2-azaspiro[3.4]octan-6-yl)oxy)carbonyl)amino)-4-methylpentanamido)-1-hydroxy-3-((R)-2-oxopyrrolidin-3-yl)propane-1-sulfonate] | > 100 µM | 
11 | CC(C)C[C@H](NC(=O)OC1CC2(CCN(C(=O)C(C)C)CC2)C1)C(=O)N[C@H](C=O)C[C@H]1CCNC1=O [Compound 8b, 7-Isobutyryl-7-azaspiro[3.5]nonan-2-yl ((S)-4-methyl-1-oxo-1-(((S)-1-oxo-3-((R)-2-oxopyrrolidin-3-yl)propan-2-yl)amino)pentan-2-yl)carbamate] | > 100 µM | 
12 | CC(C)C[C@H](NC(=O)OC1CC2(CCN(C(=O)C(C)C)CC2)C1)C(=O)N[C@@H](C[C@H]1CCNC1=O)C(O)S(=O)(=O)O (stereo partly drawn) [Compound 8c, Sodium (2S)-1-hydroxy-2-((S)-2-((((7-isobutyryl-7-azaspiro[3.5]nonan-2-yl)oxy)carbonyl)amino)-4-methylpentanamido)-3-((R)-2-oxopyrrolidin-3-yl)propane-1-sulfonate] | > 100 µM | 
13 | CC(C)C[C@H](NC(=O)OC1CC2(CCN(C#N)CC2)C1)C(=O)N[C@H](C=O)C[C@H]1CCNC1=O [Compound 11b, 7-Cyano-7-azaspiro[3.5]nonan-2-yl ((S)-4-methyl-1-oxo-1-(((S)-1-oxo-3-((R)-2-oxopyrrolidin-3-yl)propan-2-yl)amino)pentan-2-yl)carbamate] | > 100 µM | 
14 | CC(C)C[C@H](NC(=O)OC1CC2(CCN(C#N)CC2)C1)C(=O)N[C@@H](C[C@H]1CCNC1=O)C(O)S(=O)(=O)O (stereo partly drawn) [Compound 11c, Sodium (2S)-2-((S)-2-((((7-cyano-7-azaspiro[3.5]nonan-2-yl)oxy)carbonyl)amino)-4-methylpentanamido)-1-hydroxy-3-((R)-2-oxopyrrolidin-3-yl)propane-1-sulfonate] | > 100 µM | 
15 | CC(C)C[C@H](NC(=O)OC1CN(C(=O)OC(C)(C)C)C1)C(=O)N[C@H](C=O)C[C@H]1CCNC1=O [Compound 12b, Tert-butyl 3-((((S)-4-methyl-1-oxo-1-(((S)-1-oxo-3-((R)-2-oxopyrrolidin-3-yl)propan-2-yl)amino)pentan-2-yl)carbamoyl)oxy)azetidine-1-carboxylate] | > 100 µM | 
16 | CC(C)C[C@H](NC(=O)OC1CN(C(=O)OC(C)(C)C)C1)C(=O)N[C@@H](C[C@H]1CCNC1=O)C(O)S(=O)(=O)O (stereo partly drawn) [Compound 12c, Sodium (2S)-2-((S)-2-((((1-(tert-butoxycarbonyl)azetidin-3-yl)oxy)carbonyl)amino)-4-methylpentanamido)-1-hydroxy-3-((R)-2-oxopyrrolidin-3-yl)propane-1-sulfonate] | > 100 µM | 
17 | CC(C)C[C@H](NC(=O)OC1(C)CN(C(=O)OC(C)(C)C)C1)C(=O)N[C@H](C=O)C[C@H]1CCNC1=O [Compound 13b, Tert-butyl 3-methyl-3-((((S)-4-methyl-1-oxo-1-(((S)-1-oxo-3-((R)-2-oxopyrrolidin-3-yl)propan-2-yl)amino)pentan-2-yl)carbamoyl)oxy)azetidine-1-carboxylate] | > 100 µM | 
18 | CC(C)C[C@H](NC(=O)OC1(C)CN(C(=O)OC(C)(C)C)C1)C(=O)N[C@@H](C[C@H]1CCNC1=O)C(O)S(=O)(=O)O (stereo partly drawn) [Compound 13c, Sodium (2S)-2-((S)-2-((((1-(tert-butoxycarbonyl)-3-methylazetidin-3-yl)oxy)carbonyl)amino)-4-methylpentanamido)-1-hydroxy-3-((R)-2-oxopyrrolidin-3-yl)propane-1-sulfonate] | > 100 µM | 
19 | CC(C)C[C@H](NC(=O)OCC1CN(C(=O)Cc2ccccc2)C1)C(=O)N[C@H](C=O)C[C@H]1CCNC1=O [Compound 15b, (1-(2-Phenylacetyl)azetidin-3-yl)methyl ((S)-4-methyl-1-oxo-1-(((S)-1-oxo-3-((R)-2-oxopyrrolidin-3-yl)propan-2-yl)amino)pentan-2-yl)carbamate] | > 100 µM | 
20 | CC(C)C[C@H](NC(=O)OCC1CN(C(=O)Cc2ccccc2)C1)C(=O)N[C@@H](C[C@H]1CCNC1=O)C(O)S(=O)(=O)O (stereo partly drawn) [Compound 15c, Sodium (2S)-1-hydroxy-2-((S)-4-methyl-2-((((1-(2-phenylacetyl)azetidin-3-yl)methoxy)carbonyl)amino)pentanamido)-3-((R)-2-oxopyrrolidin-3-yl)propane-1-sulfonate] | > 100 µM | 
21 | CC(C)C[C@H](NC(=O)OCC1CN(C(=O)C2CC3CCC2C3)C1)C(=O)N[C@H](C=O)C[C@H]1CCNC1=O (stereo partly drawn) [Compound 16b, (1-(Bicyclo[2.2.1]heptane-2-carbonyl)azetidin-3-yl)methyl ((S)-4-methyl-1-oxo-1-(((S)-1-oxo-3-((R)-2-oxopyrrolidin-3-yl)propan-2-yl)amino)pentan-2-yl)carbamate] | > 100 µM | 
22 | CC(C)C[C@H](NC(=O)OCC1CN(C(=O)C2CC3CCC2C3)C1)C(=O)N[C@@H](C[C@H]1CCNC1=O)C(O)S(=O)(=O)O (stereo partly drawn) [Compound 16c, Sodium (2S)-2-((2S)-2-((((1-(bicyclo[2.2.1]heptane-2-carbonyl)azetidin-3-yl)methoxy)carbonyl)amino)-4-methylpentanamido)-1-hydroxy-3-((R)-2-oxopyrrolidin-3-yl)propane-1-sulfonate] | > 100 µM | 
23 | CC(C)C[C@H](NC(=O)OCC1CN(S(C)(=O)=O)C1)C(=O)N[C@H](C=O)C[C@H]1CCNC1=O [Compound 17b, (1-(Methylsulfonyl)azetidin-3-yl)methyl ((S)-4-methyl-1-oxo-1-(((S)-1-oxo-3-((R)-2-oxopyrrolidin-3-yl)propan-2-yl)amino)pentan-2-yl)carbamate] | > 100 µM | 
24 | CC(C)C[C@H](NC(=O)OCC1CN(S(C)(=O)=O)C1)C(=O)N[C@@H](C[C@H]1CCNC1=O)C(O)S(=O)(=O)O (stereo partly drawn) [Compound 17c, Sodium (2S)-1-hydroxy-2-((S)-4-methyl-2-((((1-(methylsulfonyl)azetidin-3-yl)methoxy)carbonyl)amino)pentanamido)-3-((R)-2-oxopyrrolidin-3-yl)propane-1-sulfonate] | > 100 µM | 
